# Assay results from US6472418B1, “Non-peptide NK1 receptors antagonists” (Warner-Lambert Company, priority 1998, dated 2002).
# Biological target: T1, Human NK1 Receptor (Homo sapiens, UniProt P25103)
# T1 construct: endogenous in cells; host or cells: Human lymphoma IM9 cells (whole cells)
# Test: In Vitro Human NK1 Receptor Binding Assay ([125I]Bolton-Hunter substance P displacement, IM9 cells)
# Settings: Human lymphoma IM9 cells, [125I]Bolton-Hunter substance P (0.05-0.1 nM), 50 min at 21° C.; Table 1; read-out: NK1 binding IC50
# Description: They have been evaluated in an NK1-receptor binding assay which is described below.
# Human lymphoma IM9 cells were grown in RPMI 1640 culture medium supplemented with 10% fetal calf serum and 2 mM glutamine and maintained under an atmosphere of 5% CO2. Cells were passaged every 3-4 days by reseeding to a concentration of 4-8×10^6/40 ml per 175 cm^2 flask. Cells were harvested for experiments by centrifugation at 1000 g for 3 min. Pelleted cells were washed once by resuspension into assay buffer (50 mM Tris HCl pH 7.4, 3 mM MnCl2, 0.02% BSA, […] bacitracin, […] chymostatin, 2 mM phosphoramidon, […] leupeptin) and repeating the centrifugation step before resuspending at a concentration of 2.5×10^6 cells/mL assay buffer. Cells ([…]) were incubated with [^125I]Bolton-Hunter substance P (0.05-0.1 nM) in the presence and absence of varying concentrations of test compounds for 50 min at 21° C. Non-specific binding (10% of the total binding observed under these conditions) was defined by […] [Sar^9, Met(02)^11] substance P. Reactions were terminated by rapid filtration under vacuum onto GF\C filters presoaked in 0.2% PEI for 1-2 h, using a Brandel cell harvester. Filters were washed with 6×1 ml ice-cold Tris HCl (50 mM, pH 7.4) and radioactivity bound determined using a gamma couter. Results were analyzed using iterative curve fitting procedures in RS1 or Graphpad Inplot.
# T1 sequence (P25103 whole entry): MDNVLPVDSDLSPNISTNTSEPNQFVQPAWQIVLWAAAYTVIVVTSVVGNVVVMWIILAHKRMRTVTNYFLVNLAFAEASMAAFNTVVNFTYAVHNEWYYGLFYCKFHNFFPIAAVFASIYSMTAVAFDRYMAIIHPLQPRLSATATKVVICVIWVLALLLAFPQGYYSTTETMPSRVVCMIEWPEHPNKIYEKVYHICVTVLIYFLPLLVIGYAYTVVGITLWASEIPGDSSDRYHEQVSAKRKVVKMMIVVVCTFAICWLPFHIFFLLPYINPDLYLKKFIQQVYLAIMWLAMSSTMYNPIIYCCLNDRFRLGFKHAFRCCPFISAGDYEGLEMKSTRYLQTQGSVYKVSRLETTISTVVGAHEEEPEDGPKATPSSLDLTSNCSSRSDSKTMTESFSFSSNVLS
row,SMILES,IC50 [nM]
1,"C[C@H](NC(=O)[C@@H](Cc1c[nH]c2ccccc12)NCc1ccc(Cl)s1)c1ccccc1 (relative stereo) [Example 12, 2-[(5-Chloro-thiophen-2-ylmethyl)-amino]-3-(1H-indol-3-yl)-N-(1-phenyl-ethyl)-propionamide, [R(R*,S*)]]",14

# Same assay, conditions: Human lymphoma IM9 cells, [125I]Bolton-Hunter substance P; Table 3, array-synthesis products; read-out: IC50 (nM) hNK1
row,SMILES,IC50 [nM]
1,"O=C(NCCN1CCCC1)C(Cc1c[nH]c2ccccc12)NCc1cc2ccccc2o1 (stereo not drawn) [Example 222, 2-[(Benzofuran-2-ylmethyl)-amino]-3-(1H-indol-3-yl)-N-(2-pyrrolidin-1-yl-ethyl)-propionamide]",> 10000
2,"CC(NC(=O)C(Cc1c[nH]c2ccccc12)NCc1cc2ccccc2o1)c1cccc2ccccc12 (stereo not drawn) [Example 207, 2-[(Benzofuran-2-ylmethyl)-amino]-3-(1H-indol-3-yl)-N-(1-naphthalen-1-yl-ethyl)-propionamide]",591
3,"O=C(NC1(CO)CCCC1)C(Cc1c[nH]c2ccccc12)NCc1cc2ccccc2o1 (stereo not drawn) [Example 211, 2-[(Benzofuran-2-ylmethyl)-amino]-N-(1-hydroxymethylcyclopentyl)-3-(1H-indol-3-yl)-propionamide]",> 10000
4,"O=C(NCC1CCCCC1)C(Cc1c[nH]c2ccccc12)NCc1cc2ccccc2o1 (stereo not drawn) [Example 226, 2-[(Benzofuran-2-ylmethyl)-amino]-N-cyclohexylmethyl-3-(1H-indol-3-yl)-propionamide]",54
5,"O=C(NCc1cc(F)cc(C(F)(F)F)c1)C(Cc1c[nH]c2ccccc12)NCc1cc2ccccc2o1 (stereo not drawn) [Example 303, 2-[(Benzofuran-2-ylmethyl)-amino]-N-(3-fluoro-5-trifluoromethyl-benzyl)-3-(1H-indol-3-yl)-propionamide]",17
6,"CC(NC(=O)C(Cc1c[nH]c2ccccc12)NCc1cc2ccccc2o1)c1ccsc1 (stereo not drawn) [Example 236, 2-[(Benzofuran-2-ylmethyl)-amino]-3-(1H-indol-3-yl)-N-(1-thiophen-3-yl-ethyl)-propionamide]",7
7,O=C(NCc1ccncc1)C(Cc1c[nH]c2ccccc12)NCc1cc2ccccc2o1 (stereo not drawn) [Example 240],196
8,"O=C(NCc1cccc(F)c1)C(Cc1c[nH]c2ccccc12)NCc1cc2ccccc2o1 (stereo not drawn) [Example 248, 2-[(Benzofuran-2-ylmethyl)-amino]-N-(3-fluoro-benzyl)-3-(1H-indol-3-yl)-propionamide]",6
9,"O=C(NCc1ccc(Cl)cc1)C(Cc1c[nH]c2ccccc12)NCc1cc2ccccc2o1 (stereo not drawn) [Example 258, 2-[(Benzofuran-2-ylmethyl)-amino]-N-(4-chloro-benzyl)-3-(1H-indol-3-yl)-propionamide]",46
10,"N#CC(NC(=O)C(Cc1c[nH]c2ccccc12)NCc1cc2ccccc2o1)c1ccccc1 (stereo not drawn) [Example 287, 2-[(Benzofuran-2-ylmethyl)-amino]-N-(cyano-phenyl-methyl)-3-(1H-indol-3-yl)-propionamide]",35

# Same assay, conditions: Table 4; [125I]Bolton-Hunter substance P displacement, human IM9 cells; read-out: IC50 (nM) hNK1
row,SMILES,IC50 [nM]
1,"CC(NC(=O)C(C)(Cc1c[nH]c2ccccc12)NCc1nc2ccccc2[nH]1)c1ccccc1 (stereo not drawn) [compound 316, 2-[(1H-Benzoimidazol-2-ylmethyl)-amino]-3-(1H-indol-3-yl)-2-methyl-N-(1-phenyl-ethyl)-propionamide]",> 10000

# Same assay, conditions: Table 5; [125I]Bolton-Hunter substance P displacement, human IM9 cells; read-out: IC50 (nM) hNK1
row,SMILES,IC50 [nM]
1,CNS(=O)(=O)c1cc(Cl)ccc1CNC(Cc1c[nH]c2ccccc12)C(=O)NC(C)c1ccccc1 (stereo not drawn) [compound 369],450
2,CC(NC(=O)C(Cc1c[nH]c2ccccc12)NCc1ccccc1Sc1ccc(Cl)cc1)c1ccccc1 (stereo not drawn) [compound 387],201
3,CC(NC(=O)C(Cc1c[nH]c2ccccc12)NCC(Cc1ccccc1)c1ccccc1)c1ccccc1 (stereo not drawn) [compound 370],534
4,CC=C(C)CCC=C(C)CNC(Cc1c[nH]c2ccccc12)C(=O)NC(C)c1ccccc1 (stereo not drawn) [compound 389],2570
5,CCCc1nc(-n2cccc2)c(CNC(Cc2c[nH]c3ccccc23)C(=O)NC(C)c2ccccc2)[nH]1 (stereo not drawn) [compound 375],165
6,COC(=O)c1ccc(CNC(Cc2c[nH]c3ccccc23)C(=O)NC(C)c2ccccc2)cc1 (stereo not drawn) [compound 374],1910

# Same assay, conditions: human NK1 receptor, IM9 cells, [125I]Bolton-Hunter substance P; read-out: IC50 (nM) hNK1
row,SMILES,IC50 [nM]
1,"CC(Cc1c[nH]c2ccccc12)(NCc1cc2ccccc2o1)C(=O)NCc1cccc(OC(F)(F)F)c1 (stereo not drawn) [compound 59, 2-[(Benzofuran-2-ylmethyl)-amino]-3-(1H-indol-3-yl)-2-methyl-N-(3-trifluoromethoxy-benzyl)-propionamide]",> 10000
2,"CC(Cc1c[nH]c2ccccc12)(NCc1cc2ccccc2o1)C(=O)NCc1ccccc1 (stereo not drawn) [compound 28, 2-[(Benzofuran-2-ylmethyl)-amino]-N-benzyl-3-(1H-indol-3-yl)-2-methyl-propionamide]",44
3,"CC(Cc1c[nH]c2ccccc12)(NCc1cc2ccccc2o1)C(=O)NCCC1CCCCC1 (stereo not drawn) [compound 70, 2-[(Benzofuran-2-ylmethyl)-amino]-N-(2-cyclohexyl-ethyl)-3-(1H-indol-3-yl)-2-methyl-propionamide]",216
4,"CCC(NC(=O)C(C)(Cc1c[nH]c2ccccc12)NCc1cc2ccccc2o1)c1ccccc1 (stereo not drawn) [compound 63, 2-[(Benzofuran-2-ylmethyl)-amino]-3-(1H-indol-3-yl)-2-methyl-N-(1-phenyl-propyl)-propionamide]",58
5,"CC(Cc1c[nH]c2ccccc12)(NCc1cc2ccccc2o1)C(=O)NCCN1CCCC1 (stereo not drawn) [compound 155, 2-[(Benzofuran-2-ylmethyl)-amino]-3-(1H-indol-3-yl)-2-methyl-N-(2-pyrrolidin-1-yl-ethyl)-propionamide]",> 10000
6,"CC(Cc1c[nH]c2ccccc12)(NCc1cc2ccccc2o1)C(=O)NCc1cccc(F)c1 (stereo not drawn) [compound 166, 2-[(Benzofuran-2-ylmethyl)-amino]-N-(3-fluoro-benzyl)-3-(1H-indol-3-yl)-2-methyl-propionamide]",37
7,"CC(Cc1c[nH]c2ccccc12)(NCc1cc2ccccc2o1)C(=O)NCc1ccc(F)c(Cl)c1 (stereo not drawn) [compound 191, 2-[(Benzofuran-2-ylmethyl)-amino]-N-(3-chloro-4-fluoro-benzyl)-3-(1H-indol-3-yl)-2-methyl-propionamide]",55
8,"CC(Cc1c[nH]c2ccccc12)(NCc1cc2ccccc2o1)C(=O)NCc1ccccc1Br (stereo not drawn) [compound 65, 2-[(Benzofuran-2-ylmethyl)-amino]-N-(2-bromo-benzyl)-3-(1H-indol-3-yl)-2-methyl-propionamide]",700
9,"COc1ccc(C(C)NC(=O)C(C)(Cc2c[nH]c3ccccc23)NCc2cc3ccccc3o2)cc1 (stereo not drawn) [compound 35, 2-[(Benzofuran-2-ylmethyl)-amino]-3-(1H-indol-3-yl)-N-[1-(4-methoxy-phenyl)-ethyl]-2-methyl-propionamide]",31
10,"CC(CNC(=O)C(C)(Cc1c[nH]c2ccccc12)NCc1cc2ccccc2o1)c1ccccc1 (stereo not drawn) [compound 150, 2-[(Benzofuran-2-ylmethyl)-amino]-3-(1H-indol-3-yl)-2-methyl-N-(2-phenyl-propyl)-propionamide]",262
11,"CCC(NC(=O)C(C)(Cc1c[nH]c2ccccc12)NCc1cc2ccccc2o1)c1cccs1 (stereo not drawn) [compound 114, 2-[(Benzofuran-2-ylmethyl)-amino]-3-(1H-indol-3-yl)-2-methyl-N-(1-thiophen-2-yl-propyl)-propionamide]",128
12,"CN(C)CCNC(=O)C(C)(Cc1c[nH]c2ccccc12)NCc1cc2ccccc2o1 (stereo not drawn) [compound 83, 2-[(Benzofuran-2-ylmethyl)-amino]-N-(2-dimethylamino-ethyl)-3-(1H-indol-3-yl)-2-methyl-propionamide]",3520
